Test results taken from PubChem BioAssay (NCI).
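Test compounds were applied to cells in 96-well plates for 48 hours at 5 doses. TGI marks complete inhibition of growth.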

Legend:
Test in all cases: growth of human tumour cells (NCI), 48 h
A549 NSCLC = system: A549 NSCLC
DU-145 prostate = system: DU-145 prostate
HCC-2998 colon = system: HCC-2998 colon
HL-60(TB) leukemia = system: HL-60(TB) leukemia
K-562 leukemia = system: K-562 leukemia
LOX IMVI melanoma = system: LOX IMVI melanoma
MDA-MB-231 breast = system: MDA-MB-231 breast
NCI-H226 lung = system: NCI-H226 lung
NCI/ADR-RES ovarian = system: NCI/ADR-RES ovarian
PC-3 prostate = system: PC-3 prostate
SK-MEL-2 melanoma = system: SK-MEL-2 melanoma
SK-OV-3 ovarian = system: SK-OV-3 ovarian
SN12C renal = system: SN12C renal
SW-620 colon = system: SW-620 colon
T-47D breast = system: T-47D breast
M14 melanoma = system: M14 melanoma

| SMILES | TGI (A549 NSCLC) | TGI (DU-145 prostate) | TGI (HCC-2998 colon) | TGI (HL-60(TB) leukemia) | TGI (K-562 leukemia) | TGI (LOX IMVI melanoma) | TGI (MDA-MB-231 breast) | TGI (NCI-H226 lung) | TGI (NCI/ADR-RES ovarian) | TGI (PC-3 prostate) | TGI (SK-MEL-2 melanoma) | TGI (SK-OV-3 ovarian) | TGI (SN12C renal) | TGI (SW-620 colon) | TGI (T-47D breast) | TGI (M14 melanoma) |
| --- | --- | --- | --- | --- | --- | --- | --- | --- | --- | --- | --- | --- | --- | --- | --- | --- |
| O=C(Nc1ccccc1)n1[nH]c(=O)n(-c2ccccc2)c1=O | > 100 µM | > 100 µM | > 100 µM | > 100 µM | > 100 µM | > 100 µM | > 100 µM | > 100 µM | > 100 µM | > 100 µM | > 100 µM | > 100 µM | > 100 µM | > 100 µM | > 100 µM | – |
| Cc1ccc(C(=O)Nc2ccc(CP(=O)(O)O)cc2CP(=O)(O)O)cc1NC(=O)c1cccc(NC(=O)Nc2cccc(C(=O)Nc3cc(C(=O)Nc4ccc(CP(=O)(O)O)cc4CP(=O)(O)O)ccc3C)c2)c1 | > 100 µM | > 100 µM | > 100 µM | > 100 µM | > 100 µM | > 100 µM | > 100 µM | > 100 µM | > 100 µM | > 100 µM | > 100 µM | > 100 µM | > 100 µM | > 100 µM | > 100 µM | > 100 µM |
| CC1(C)C/C(=N/O)c2c(nc3ccc4ccccc4c3c2-c2ccc(Cl)cc2)C1 | 51 µM | 40.9 µM | 43.8 µM | 26.1 µM | 65.6 µM | 26.6 µM | 24.4 µM | 46.3 µM | 39.3 µM | > 100 µM | > 100 µM | 34.7 µM | 22.7 µM | 77.9 µM | 34.2 µM | > 100 µM |
| CCCCN(Cc1ccccc1)C(=NC#N)N(Cc1ccccc1)Cc1ccccc1 | > 100 µM | > 100 µM | > 75.7 µM | > 100 µM | > 100 µM | 35.1 µM | 51.7 µM | 70.5 µM | 59.7 µM | 32.8 µM | 37.6 µM | > 96.1 µM | > 80.5 µM | > 100 µM | > 100 µM | 47.4 µM |
| COc1ccc(OC2OC(COC(c3ccccc3)(c3ccc(OC)cc3)c3ccc(OC)cc3)C(O)C(O)C2O)cc1 (centres undefined) | 11.8 µM | 35.7 µM | 16.4 µM | 7.59 µM | 10.2 µM | 3.95 µM | 18.1 µM | 28.3 µM | 29.2 µM | 9.59 µM | 15 µM | 18.8 µM | 6.59 µM | 14.3 µM | 21.4 µM | 7.05 µM |
